The nature of series [1]: Organ distribution in mice by X-band ESR. The settings on record: for Blood (% dose) / Brain (% dose): vena caudalis, 7.5 μmol (2.5 μmol for 3-carboxy-PROXYL acetoxymethyl ester).
Procedure: (§5) The test was performed using sixteen groups of three mice each (ddY, female) as experimental animals as described below. 7.5 μmol of the test samples (2.5 μmol for 3-carboxy-PROXYL acetoxymethyl ester) were administered to the vena caudalis of the mice under ether, and allowed to stand for 3, 10, and 30 minutes, respectively. The mice were then dehematized quickly and the brain was removed. The brain was homogenized with a phosphate buffer solution in an amount nine times that of the removed brain. The blood was diluted with a phosphate buffer solution in an amount nine times thereof. A potassium ferricyanide solution was added to part of the tissue thus treated so that the final concentration was 1 mM. The test samples which had become hydroxylamines by the active oxygen and the like in vivo were converted to nitroxide radicals (one electron oxidation) to prepare ESR samples.
(§6) The concentration of the test samples after one electron oxidation was measured by x-band ESR and determined as the concentration of the samples in vivo. The test sample solution in an amount equal to that administered to the mice was prepared. This solution was treated in the same way, beginning from the addition of the nine-fold phosphate buffer solution. The concentration of the test sample was measured by x-band ESR and was determined as the total dosage. 15 mm of each sample taken into a 100 μl capillary (length 116.5 mm) was put into a quartz cell to measure the ESR spectrum under the following conditions.
(§7) Measuring device: Electron spin resonance spectrometry "JES-RE1X" (manufactured by JEOL Ltd.)
Magnetic field: 331.5±5 mT
Time constant: 0.03 second
(§8) The ratio of the test samples in the brain and blood to the total dosage (% dose), the value obtained by dividing the % dose by the weight of the brain and blood (% dose/g), and the ratio of the % dose/g of the brain, which was the target organ, to the % dose/g of the blood were calculated from the ESR spectrum.
The next series in a line: in vivo. The settings on record: mouse, iv.
Another series in a line: in vitro. The class given is in vitro ADME. To be noted: carboxylesterase, 37° C., mean ± SD, n = 3, read-out: Hydrolysis Rate; for metabolised at 10 s: 10 sec., SD printed on next line: 0.43 (methyl ester), 11.9 (acetoxymethyl ester); for metabolised at 1 min: SD printed on next line: 0.34 (methyl ester), 3.4 (acetoxymethyl ester); for metabolised at 0.05 h: 3 min., 1.1 (acetoxymethyl ester); for metabolised at 0.05 h / metabolised at 5 min: SD: 0.49 (methyl ester); for metabolised at 5 min: 2.2 (acetoxymethyl ester); for metabolised at 10 min: SD printed on next line: 0.08 (methyl ester); for metabolised at 10 min / metabolised at 0.5 h: 0.0 (acetoxymethyl ester); for metabolised at 0.5 h: 30 min., SD printed on next line: 1.51 (methyl ester). As to the method: (§1) Changes with time in the hydrolysis rate of 3-carboxy-PROXYL methyl ester and 3-carboxy-PROXYL acetoxymethyl ester by an esterase were examined.
(§2) 200 μl of a 10 mM test sample solution was mixed with 800 μl of 5 micro units of an esterase (carboxy esterase, carboxylic ester hydrolase; EC 3.1.1.1 manufactured by Sigma, catalogue No. E3128). The mixture was incubated at 37° C. for 10 seconds, 1 minute, 3 minutes, 5 minutes, 10 minutes, and 30 minutes, respectively. The mixture was then analyzed by HPLC to calculate the hydrolysis rate from the amount ratio of the unchanged product to 3-carboxy-PROXYL which is a hydrolysate thereof.
(§3) HPLC was performed using a UV-VIS detector (UV-8020), a dual pump (CCPS), a column (ODS-80Ts), and a TSK precolumn (BSA-ODS) all manufactured by Tosoh Corp.
(§4) Mobile phase: 20 mM phosphate buffer solution (pH 2.2)/methanol=60/40

The next series concerns mouse brain. The class given is in vivo. The settings on record: 2.5 μmol, vena caudalis. As to the method:
. An L band ESR-CT image of the head axial transverse section was measured under the following conditions.
Measuring device: Electron spin resonance spectrometry
"JES-RE31" (manufactured by JEOL Ltd.)
Magnetic field gradient: 0.45 mT/cm
Projection: 18 (every 10°)
Magnetic field modulation: 100 kHz
Time constant: 0.003 second
Measurement temperature: room temperature

Series [2] deals with esterase (carboxy esterase, carboxylic ester hydrolase; EC 3.1.1.1). Description: in vitro. In kind it is in vitro ADME. The protocol: as §1, §2, §3, §4

Procedure for in vivo: as §5, §6, §7
Magnetic field: 331.5±5 mT
Time constant: 0.03 second
as §8

Take `COC(=O)C1CC(C)(C)N([O])C1(C)C` (centres unmarked) [3-carboxy-PROXYL methyl ester]: in series [1] (3 min.), the “Blood (% dose)” value is on record as 4.62 % dose and the “Brain (% dose)” value was 1.31 % dose. In series [1] (10 min.), the “Blood (% dose)” value came to 2.68 % dose and the “Brain (% dose)” value came to 0.67 % dose. Moreover, in series [1] (30 min.), the “Blood (% dose)” value was 2.18 % dose and the “Brain (% dose)” value came to 0.21 % dose. Besides, the Kp at 10 min in the series “in vivo” was in the range of 0.84 to 1.78. In the series “in vitro”, the metabolised at 10 s is 0.05%, the metabolised at 1 min amounted to 0.4%, the metabolised at 0.05 h was 0.8% and the metabolised at 5 min was 1.35%. In the series “in vitro”, the metabolised at 10 min amounted to 2.54% and the metabolised at 0.5 h was 8.25%. In addition, in the series on mouse brain, the “L band ESR-CT: concentration inside the brain” value is listed as “highly concentrated inside the brain” and the “L band ESR-CT: concentration outside the brain” value is “concentrated outside the brain”.
For `CCOC(=O)C1CC(C)(C)N([O])C1(C)C` (centres unmarked) [3-carboxy-PROXYL ethyl ester], the “Blood (% dose)” value was 3.46 % dose in series [1] (3 min.), 2.92 % dose in series [1] (10 min.) and 3.38 % dose in series [1] (30 min.). Further, the figures for the “Brain (% dose)” value in series [1] (3 min.), in series [1] (10 min.) and in series [1] (30 min.) were 0.79 % dose, 0.74 % dose and 0.12 % dose, respectively. In “in vivo”, this compound registered a Kp at 10 min of 0.84 to 1.78.
Take 2-ethyl-2,5,5-trimethyloxazolidinyloxy: the “Blood (% dose)” value in series [1] (3 min.) was found to be 4.52 % dose; in series [1] (10 min.), 3.69 % dose; in series [1] (30 min.) it was 0.81 % dose. In addition, the results for the “Brain (% dose)” value in series [1] (3 min.), in series [1] (10 min.) and in series [1] (30 min.) were 1.63 % dose, 1.64 % dose and 0.52 % dose, respectively. In series [1] (after 10 minutes), the “brain to blood ratio (ratio of % dose/g of the brain to % dose/g of the blood)” value is recorded as 0.84-1.78.
Consider `CC(=O)OCOC(=O)C1CC(C)(C)N([O])C1(C)C` (centres unmarked) [3-carboxy-PROXYL acetoxymethyl ester, acetoxymethyl-2,2,5,5-tetramethylpyrrolidinyloxy-3-carboxylate], for which, in series [1] (3 min.), the “Blood (% dose)” value is recorded as 6.28 % dose and the “Brain (% dose)” value turned out to be 2.26 % dose. Besides, in series [1] (10 min.), the “Blood (% dose)” value amounted to 4.41 % dose and the “Brain (% dose)” value is recorded as 2.77 % dose. Further, in series [1] (30 min.), the “Blood (% dose)” value was 4.21 % dose and the “Brain (% dose)” value stood at 1.98 % dose. In “in vivo”, this compound came in with a Kp at 10 min of 3.14 and a Kp at 0.5 h of 2.88. Also, in the series “in vitro”, the metabolised at 10 s came to 30.1%, the metabolised at 1 min is 70.8%, the metabolised at 0.05 h was 93.9% and the metabolised at 5 min amounted to 96.7%. In the series “in vitro”, the metabolised at 10 min came to 100% and the metabolised at 0.5 h amounted to 100%. For the same compound, in series [2], the “Speed of hydrolysis by esterase compared with methyl ester, in words” value is recorded as “hydrolyzed by an esterase in a shorter period of time than 3-carboxy-PROXYL methyl ester”. Besides, the “Hydrolysis by esterase, in words” value in series [2] (after 10 seconds) is recorded as “slightly hydrolyzed”. Also, in the series on mouse brain, the “L band ESR-CT: concentration inside the brain” value is recorded as “still more highly concentrated inside the brain” and the “L band ESR-CT: concentration outside the brain” value is on record as “decreased accumulation outside the brain”.
